Patent US3937838A, “Orally active bronchospasmolytic compounds and their preparation” (priority 1966, dated 1976)
Where two headings read alike, the source gives them in different places.

How the values were obtained:
guinea pig trachea = assay: Bronchospasmolytic effect in vitro (Example 13); settings: for bronchospasmolytic effect x (-)epinephrine: based on ED50-values, weight basis, Table 7; for bronchospasmolytic effect in vitro relative to terbutaline: per se
Protocol: The trachea from a guinea pig was dissected out and spirally cut. It was mounted in a water-jacketed bath (37°C.) in Krebs solution and aerated with oxygen (95%) and carbon dioxide (5%). Pilocarpine (2 μg/ml) was added. The load was adjusted to about 2 g and relaxations in the trachea were recorded by means of a Grass force displacement transducer and a Grass polygraph model 5 (see Example 5 above). The cumulative method was used (-)-Epinephrine was used as reference. The comparisons presented in Table 7 are based on ED50 -values.

[1] = test system: isolated guinea pig heart; assay: Effect on isolated heart from guinea pig, Langendorff (Example 16); settings: for direct heart effect relative to terbutaline: per se
Protocol: The isolated guinea pig heart was perfused according to Langendorff. The method used is described by Anden et al. [Acta Pharmacol. et Toxicol. 21, 247, (1964)]. Contractions in the heart were recorded by a force displacement transducer and a Grass polygraph model 5. The recovery of the heart was tested with (-) epinephrine between every dose of the substance tested. Terbutaline was used as reference.

[2] = test system: histamine-induced bronchospasm; assay: Bronchospasmolytic effect in the anesthetized cat, Konzett & Rossler (Example 14); type: in vivo; settings: i.v.; based on ED50-values; weight basis; Table 8
Protocol: Bronchospasmolytic effect was studied according to the method of Konzett & Rossler (see Example 5b above). Bronchospasm was induced by i.v. injections of histamine into the left jugular vein. Overflow was recorded by means of a Grass volume transducer and a Grass polygraph model 5. Changes in arterial mean pressure and heart rate, were continuously recorded during the experiment. Terbutaline was used as reference in all experiments. The comparisons are based on ED50 -values.

[3] = test system: bronchoconstriction by histamine aerosol; assay: Protecting effect against histamine aerosol in guinea pigs (Example 15); type: in vivo, guinea pig; settings: for ED50: Cavia porcellus, read-out: ED50 (protecting 50 percent of the animals for more than 4 minutes)
Source text: Male guinea pigs (200--300 g) were used. Bronchoconstriction was produced by letting the animals inhale a histamine aerosol.

mice = assay: Toxicity study in mice (Example 18); type: in vivo; settings: indicated by higher oral toxicity
Protocol: (§1) The toxicity was studied in mice (NMRI, male, 18-28 g) 24 hours after i.v. and oral administration. The animals were observed during five days. No further deaths occurred.

[4] = Toxicity study in mice (Example 18); type: in vivo; settings: mouse, in vivo, mice (NMRI, male), 24 hours, read-out: LD 50 + Standard error
Protocol: as §1

[5] = test system: right auricle from the guinea pig; assay: Dual preparation test in vitro, effect on auricle (Example 5c); settings: slow infusion; 0.375 μg/min where stated; FIGS. 2-4
Source text: (§2) [This procedure is more fully described below in Example 5 (b)].
(§3) FIG. 2 illustrates the effect of epinephrine (EPE) and terbutaline on spirally cut trachea and right auricle from the guinea pig. Both preparations are dissected out from the same animal and run under identical experimental conditions;
(§4) Both preparations are dissected out from the same animal, and run under identical experimental conditions;
(§5) Both preparations are dissected out from the same animal and run under identical experimental conditions;
(§6) The relation between the heart stimulatory effect and bronchodilator effect was studied in vitro on auricle-trachea-preparation from the guinea pig in order to compare the effect on the heart and the effect on the bronchial muscle under identical experimental conditions. Both spontaneously bearing auricle and spirally-cut trachea were placed in the same bath in Krebs solution. Both preparations were taken from the same animal.
(§7) The compound to be tested was slowly infused into the bathing solution and the tension was measured for each of the auricle and trachael preparations.
(§8) In carrying out this dual preparation test, epinephrine was used as a reference. […] Infusion of epinephrine was made over a period of ten minutes. After washing and recovery, the test solution was infused in the same manner and the effect of the test compound was compared with the effect of epinephrine.
Referring more specifically to FIG. 2, the upper portion of each chart thereof represents the tension continuously recorded of the auricle preparation (shaded area 1 for the effect of epinephrine on the auricle, ref. no. 2 for the effect of terbutaline infused at a rate of 0.2 μg/min on the auricle, and ref. no. 3 for the effect of terbutaline infused at a rate of 0.375μg/min on the auricle).

[6] = test system: spirally cut trachea from the guinea pig; assay: Dual preparation test in vitro, effect on trachea (Example 5c); settings: slow infusion; 0.375 μg/min where stated; FIGS. 2-4
Source text: as §2, §3, §4, §5, §6, §7, §8

[7] = test system: isolated guinea pig auricle; assay: Dual bath preparation, effect on left auricle (Example 8a); settings: same bath
Protocol: The left auricle was dissected out and mounted together with spirally-cut trachea from the same animal in a 100 ml bath in Kreb's solution (37°C.) well aereated with a mixture of oxygen (95%) and carbon dioxide (5%). The auricle was electrically stimulated with square wave pulses from a Techtronic Stimulator (voltage 2-4; duration: 10 m sec; frequency 1 per second). This is, in general, the same procedure described above in Example 5c.
Using the dual bath preparation, tests were made of the effect on the trachea and auricle of KWD2025 (of the present invention) and of the known drugs KWD2109 and epinephrine. The drug to be tested was added to the bath in the predetermined amount and allowed to act upon the organs for 10 minutes.

[8] = test system: isolated guinea pig heart; assay: Effect on isolated guinea pig heart, Langendorff (Example 7d); settings: KWD2025 given index 1.0
Protocol: The isolated guinea pig heart was perfused according to Langendorff. The method used is described by Anden et al. (Acta. Pharmacol. et Toxicol. 21, 247, 1964). Contractions in the heart were recorded by means of a force displacement transducer and aa Grass polygraph Model 7. Epinephrine was used as reference. KWD2109 and KWD2025 were tested on the same preparation. The comparisons of effects were based on dose for 50 percent increase in chronotropic effect and 10 percent increase in inotropic effect.

[9] = test system: bronchospasm induced by histamine aerosol; assay: Protecting effect against histamine aerosol in intact guinea pigs (Example 7c); type: in vivo, guinea pig; settings: Cavia porcellus, m ± s.e., read-out: ED50 (protecting 50 per cent of the animals for more than 4 minutes)
Protocol: The compounds KWD2109 and KWD2025 have been compared in preventing bronchospasm induced by histamine aerosol in guinea pigs.
The drug was injected intraperitoneally 15 minutes (Table 2) or administered orally 30 minutes (Table 3) before histamine treatment. The dose of the drugs protecting 50 per cent of the animals for more than 4 minutes is denoted "ED50". In untreated animals only 1-2 percent will withstand the histamine aerosol for more than 4 minutes.
To study the duration of the effect, 2 mg/kg was administered orally to intact guinea pigs at different time intervals before the histamine treatment. Two series each including eleven groups of six animals was studied. The groups were tested in histamine aerosol 10, 20, 30, 40, 50, 60, 120, 180, 240, 300 and 360 minutes after the administration of the compound. The per cent of animals in each group protected more than 4 minutes and more than 10 minutes was determined.

[10] = Acute toxicity in mice (Example 9); settings: mouse, in vivo, iv, mice
[11] = test system: histamine induced bronchoconstriction; assay: Bronchospasmolytic effect in vivo, Konzett and Rossler (Example 5b); set-up: species or system guinea pig; settings: measured as described above
Protocol: Orciprenaline and terbutaline were also tested in vivo according to the method described by Konzett and Rossler [Arch. Exp. Path. Pharmak. 195 (1940) page 71]. In the method of Konzett and Rossler, the animal is ventilated with a constant volume of air. When a certain pressure has been reached in the lung, the volume of air which is in excess of the pulmonary capacity will escape through the valve. This surplus of air is recorded. The testing compounds in the Konzett and Rossler method, bronchial contraction is provoked by administration of histamine. The histamine reduced the capacity of the airways, and the measured overflow increases. In order to see to what extent a test compound counteracts the histamine-induced bronchospasm, the animal is first given an injection of the test compound which is followed 3 minutes later by exposure to histamine.

isolated rabbit heart = assay: Effect on isolated heart, Langendorff preparation (Example 5d); settings: same procedure
Protocol: The effect of the compound of the present invention was also studied on isolated rabbit heart (Langendorff preparation) the method used as described by Anden et al. (Acta Pharmacol. et Toxicol., 21 (1964) page 247). In this procedure, the isolated heart is mounted in a Krebs solution and the test compound is injected into it. Measurements are continuously recorded of the rate and force of contraction.
The tests using epinephrine establish a standard of comparison to evaluate subsequent test compounds in the same preparation.

[12] = test system: arterial mean pressure, pulse pressure, heart rate, peripheral vascular resistance; assay: Haemodynamic studies in anesthetized cats (Example 17); type: in vivo, cat
Protocol: The haemodynamic effects of KWD2058 and terbutaline were studied in anesthetized cats after i.v. injection in the left femoral vein. Three experiments were done. The effects on arterial mean pressure, pulse pressure (right carotid artery) and heart rate were recorded.
To study the effect of the compounds on the peripheral vascular resistance, constant flow was arranged in the right hind limb on two cats by means of a Sigma motor pump connected to arteria femoralis. Injections were made intra-arterially and variations in the peripheral resistance were recorded as pressure changes.

Compound	bronchospasmolytic effect x (-)epinephrine (guinea pig trachea)	bronchospasmolytic effect in vitro relative to terbutaline (guinea pig trachea)	effect on heart rate x terbutaline ([1]; Table 10)	direct heart effect relative to terbutaline [1]	bronchospasmolytic effect x terbutaline [2]	ED50 ([3]; ip, 0.25 h) [mg/kg]	ED50 ([3]; po, 0.5 h) [mg/kg]	oral absorption in comparison with terbutaline (mice)	LD50 at 24 h ([4]; iv) [mg/kg]	LD50 at 24 h ([4]; po) [mg/kg]	further results
CC(=O)Oc1cc(OC(C)=O)cc(C(O)CNC(C)(C)C)c1 (stereo not drawn) [KWD2037]	0.7	weaker bronchospasmolytic effect in vitro than terbutaline	0.05 ± 0.01	much less direct heart effect	0.7 ± 0.1	0.7	0.4	improved oral absorption in comparison with terbutaline	112 ± 5	2100	effect on force of contraction x terbutaline ([1]; Table 10): 0.03 ± 0.01
NC[C@H](O)c1ccc(O)c(O)c1 [norepinephrine, reference compound]	–	–	–	–	–	–	–	–	–	–	effect on auricle (tension) [5]: strong effect on the heart muscle; effect on trachea (relaxation) [6]: without affecting the bronchial muscles
Oc1cc(O)cc(C(O)CNC2CCC2)c1 (stereo not drawn) [KWD2025, 1-(3',5'-dihydroxyphenyl)-2-(cyclobutylamino)-ethanol]	–	–	–	–	–	–	–	–	–	–	effect on force of contraction in auricle in concentrations relaxing the trachea [7]: relaxed the trachea without affecting the auricle; therapeutic index, bronchospasmolytic effect over effect on the heart (inotropic) [8]: 1.0; ED50 ([9]; ip, 0.25 h, i.p., 15 minutes before histamine-aerosol): 0.6 ± 0.07 mg/kg; ED50 ([9]; po, 0.5 h, peroral, 30 minutes before histamine-aerosol): 1.7 ± 0.3 mg/kg; LD50 [10]: 54 mg/kg; bronchospasmolytic effect relative to epinephrine [11]: about 0.4 times; bronchospasmolytic effect relative to orciprenaline [11]: about 1.2 times; cardiac stimulatory effect relative to epinephrine (isolated rabbit heart): less than 0.1 times
CCC(=O)Oc1cc(OC(=O)CC)cc(C(O)CNC(C)(C)C)c1 (stereo not drawn) [KWD2057]	0.4	weaker bronchospasmolytic effect in vitro than terbutaline	0.06	much less direct heart effect	0.5	0.2	1	improved oral absorption in comparison with terbutaline	70 ± 4	2200	–
Br.CC(C)C(=O)Oc1cc(OC(=O)C(C)C)cc(C(O)CNC(C)(C)C)c1 (stereo not drawn) [KWD2058, 1-(3',5'-diisobutyryloxyphenyl)-2-(t-butylamino)-ethanol hydrobromide]	0.6 ± 0.2	weaker bronchospasmolytic effect in vitro than terbutaline	–	much less direct heart effect	1.0 ± 0.1	–	–	improved oral absorption in comparison with terbutaline	52 ± 4	2150	effect on heart rate ([1]; doses up to 100 μg): no effect; ED50 ([3]; 0.5 h, oral, 30 minutes before histamine): 0.15 mg/kg; ED50 ([3]; ip, 0.25 h, i.p., 15 minutes before histamine): 1 mg/kg; protecting effect relative to terbutaline ([3]; oral): 2.5 times; oral absorption in comparison with terbutaline ([3]; seen in oral ED50, Table 9): particularly good oral absorption in comparison with terbutaline; effect on arterial mean pressure, pulse pressure, heart rate and peripheral vascular resistance relative to terbutaline ([12]; cat, summary): about half; arterial mean pressure, x terbutaline ([12]; i.v., anesthetized cats): 0.4+0.1 × terbutaline; heart rate, x terbutaline ([12]; i.v., anesthetized cats): 0.4±0.1 × terbutaline; pulse rate, x terbutaline ([12]; i.v., anesthetized cats, pulse pressure in text): 0.4±0.1 × terbutaline; change in peripheral resistance, x terbutaline ([12]; intra-arterial, right hind limb, constant flow): 0.4±0.1 × terbutaline
